Test results published in patent US4894453A, “2-substituted alkoxy-3-substituted-pyrazines” (Toyo Jozo Kabushiki Kaisha, priority 1986, dated 1990).

Tests used:
[1] = test system: PAF-induced aggregation (rabbit platelet plasma); assay: Platelet aggregation inhibitory action on PAF-induced aggregation; assay type: cell-based; conditions: Oryctolagus cuniculus, 0.05 h, PAF 10-50 μg/ml, 37° C., 3 min incubation, hydrochloride salt, read-out: inhibition ratio, PAF-induced platelet aggregation
[2] = test system: blood flow, femoral artery / left back limb; assay: Vasodilation activity, changes in blood flow in perfused left back limb of anesthetized dog; assay type: in vivo; conditions: 100 μg into right femoral artery; relative to increased blood flow by 30 μg papaverin intra-arterially = 100%; hydrochloride salt
Method: (§1) The pharmacological activity of the present compounds [1] is illustrated below. All the compounds [1] used in the pharmacological tests were tested in the form of the hydrochloride salt thereof.
2. Vasodilation activity:
A dog, pretreated with morphine (1.5 mg/kg, sc) is anesthesized with urethane (450 mg/kg, iv) and α-chloralose (45 mg/kg, iv), and immobilized in the dosal position. Right femoral arterial blood is introduced into a left femoral artery via a perfusion pump, and Sterling's resistance is connected to the exosomatic circulatory system to perfuse blood to a left back limb at constant pressure. The perfusion pressure is set at a value slightly higher than that of the average blood pressure of the animal. Sample (100 μg) dissolved in physiological saline solution is administered to a right femoral artery, and changes in blood flow are measured. Vasodilation activity is measured as a relative activity, by defining as 100% the increased rate of blood flow when 30 μg papaverin is administered intra-arterially. The results are shown in Table 5, where it will be seen that the compounds [1] of the present invention have strong vasodilation activity.

[3] = test system: PAF-induced aggregation (rabbit platelet plasma); assay: Platelet aggregation inhibitory action on PAF-induced aggregation; assay type: cell-based; conditions: Oryctolagus cuniculus, 0.05 h, PAF 10-50 μg/ml, 37° C., 3 min incubation, hydrochloride salt, read-out: inhibition ratio, PAF-induced platelet aggregation; remark: listed apart in the source
Method: as §1
(§2) 1. Platelet aggregation inhibition:
(§3) Sample solution containing a compound [1] (final concentration 500 or 100 μM) is added to rabbit platelet plasma to which was added 10% by volume of a 3.8% sodium citrate solution, and the mixture is incubated at 37° C. for 3 minutes. A platelet activation factor (PAF, final concentration 10-50 μg/ml) or collagen (final concentration 2.5 μg/ml) is added thereto as an aggregating agent, and platelet aggregation activity is measured with an aggregometer. The results of assays for PAF-induced aggregation are shown in Table 3, and those for collagen-induced aggregation are shown in Table 4, which tables show the strong platelet aggregation inhibitory activity of the compounds [1] of the present invention.

[4] = test system: collagen-induced aggregation (rabbit platelet plasma); assay: Platelet aggregation inhibitory action on collagen-induced aggregation; assay type: cell-based; conditions: Oryctolagus cuniculus, 0.05 h, collagen 2.5 μg/ml, 37° C., 3 min incubation, hydrochloride salt, read-out: inhibition ratio, collagen-induced platelet aggregation
Method: as §1, §2, §3

[5] = test system: lipoperoxide generation in rat cerebrum; assay: Antioxidant activity (inhibition of lipoperoxide generation, method of Stocks et al.); assay type: biochemical; conditions: 100 μM; rat cerebrum supernatant, 37° C., 15 min, thiobarbituric acid, 532 nm; hydrochloride salt
Method: as §1
Antioxidant activity is determined according to the method of Stocks et al. [Clin. Sci. Mol. Med., 47: 215 (1974)]. Rat cerebrum is added to ice-cooled 40 mM phosphate saline buffer solution (PBS) (pH 7.4, 4 ml buffer per 1 g cerebrum), homogenized and centrifuged (1000×g, 4° C., 10 min.) to obtain a supernatant solution. The supernatant solution is diluted fivefold with the above ice-cooled PBS solution, and to a 0.9 ml aliquot thereof is added a sample containing a compound [1] (0.1 ml, final concentration 100 μM) dissolved in ethanol. The resultant mixture is incubated at 37° C. for 15 minutes, 35% perchloric acid (0.2 ml) is added, and the mixture is ice-cooled to stop the reaction and centrifuged (1300×g, 4° C., 10 min.). 0.5 ml thiobarbituric acid (5 g/lit. of 50% acetic acid) is added to the supernatant solution (1 ml), so as to measure its absorbancy at 532 nm. The amount of lipoperoxide thus generated is expressed as an amount of malondialdehyde.

Question: Which inhibition at 300 µM [1] does the source give for `Cc1nc(C)c(OCC(=O)N2CCCCC2)nc1C` [Compound 067] here?
Answer: Its inhibition at 300 µM is 53%.

Question: With `Cc1nc(C)c(OCC(=O)N2CCOCC2)nc1C` [Compound 075] as the compound, how does the vasodilation activity [2] read?
Answer: Its vasodilation activity is 89%.

Question: Which results are given for `Cc1nc(C)c(OCC(=O)NCCN2CCN(Cc3ccc(Cl)cc3)CC2)nc1C` [Compound 135]?
Answer: inhibition at 500 µM ([3]; 500 μM): 77%; vasodilation activity [2]: 242%

Question: For `Cc1nc(C)c(OCC(=O)NCCN2CCN(Cc3ccccc3)CC2)nc1C` [Compound 136], which inhibition at 100 µM [3] is on record?
Answer: The inhibition at 100 µM was 50%.

Question: What about the vasodilation activity [2] of the same compound?
Answer: Its vasodilation activity is 204%.

Question: For `Cc1nc(C)c(OCC(=O)NCCN2CCN(Cc3ccccc3Cl)CC2)nc1C` [Compound 137], which inhibition at 100 µM [3] is on record?
Answer: The inhibition at 100 µM was 76%.

Question: What about the vasodilation activity [2] of the same compound?
Answer: Its vasodilation activity is 216%.

Question: How did the inhibition at 100 µM [3] turn out when `CCc1nc(OCCN2CCCCC2)c(C(C)C)nc1CC` [Compound 550] was run?
Answer: Its inhibition at 100 µM is 56%.

Question: And the inhibition at 100 µM [4]?
Answer: The inhibition at 100 µM was 85%.

Question: How did the inhibition at 100 µM [3] turn out when `CCc1nc(CC(C)C)c(OCCN2CCN(Cc3ccccc3)CC2)nc1CC` [Compound 556] was run?
Answer: Its inhibition at 100 µM is 51%.

Question: What about the inhibition at 100 µM [4] of the same compound?
Answer: Its inhibition at 100 µM is 40%.

Question: Which inhibition at 100 µM [3] does the source give for `CCCCCCCCc1nc2c(nc1OCCN1CCN(CCCC)CC1)CCCC2` [Compound 573] here?
Answer: The inhibition at 100 µM was 86%.

Question: What about the inhibition at 100 µM [4] of the same compound?
Answer: The inhibition at 100 µM was 58%.

Question: And the “inhibition ratio, lipoperoxide generation (antioxidant activity)” value [5]?
Answer: The value was 56%.

Question: What does the source list for `CCCCCCCCCc1nc2c(nc1OCCN1CCN(CCCC)CC1)CCCC2` [Compound 580]?
Answer: inhibition at 100 µM [3]: 94%; inhibition at 100 µM [4]: 80%; inhibition ratio, lipoperoxide generation (antioxidant activity) [5]: 77%

Question: How did the inhibition at 100 µM [4] turn out when `CCCCCCCCCCc1nc2c(nc1OCCN1CCOCC1)CCCC2` [Compound 585] was run?
Answer: Its inhibition at 100 µM is 41%.

Question: What about the “inhibition ratio, lipoperoxide generation (antioxidant activity)” value [5] of the same compound?
Answer: Its value is 62%.

Question: What does the source list for `CCCCCCCCCCc1nc2c(nc1OCCN1CCN(CCCC)CC1)CCCC2` [Compound 587]?
Answer: inhibition at 100 µM [3]: 91%; inhibition at 100 µM [4]: 79%; inhibition ratio, lipoperoxide generation (antioxidant activity) [5]: 65%

Question: What does the source list for `CCCCCCCCCCc1nc2c(nc1OCCN1CCN(CCO)CC1)CCCC2` [Compound 588]?
Answer: inhibition at 100 µM [3]: 64%; inhibition at 100 µM [4]: 78%; inhibition ratio, lipoperoxide generation (antioxidant activity) [5]: 65%
